Data taken from US7060822B1, “2-pyrazolin-5-ones” (Abbott GmbH & Co. KG, priority 1999, dated 2006).

**Q.** With `CCc1c(C)[nH]c(C=C2C(=O)NN=C2CCc2ccc(N)cc2)c1C` [Example 45, 3-(4-Aminophenylethyl)-4-[(3,5-dimethyl-4-ethylpyrrol-2-yl)methylene]-2-pyrazolin-5-one] as the molecule, how does the melting point read?
**A.** The melting point was 183 to 185 °C.

**Q.** Which melting point does the source give for `CCOC1=NNC(=O)C1=Cc1ccc(C)[nH]1` [Example 46, 3-Ethoxy-4-[(5-methylpyrrol-2-yl)methylene]2-pyrazolin-5-one] here?
**A.** Its melting point is 197 to 199 °C.

**Q.** Which melting point does the source give for `CCc1c(C)[nH]c(C=C2C(=O)NN=C2CCc2ccc(C(N)=O)cc2)c1C` [Example 47, 3-(4-Carbamoylphenylethyl)-4-[(3,5-dimethyl-4-ethylpyrrol-2-yl)methylene]-2-pyrazolin-5-one] here?
**A.** The melting point was 297 to 299 °C.

**Q.** For `CCOC(=O)c1c(C)[nH]c(C=C2C(=O)NN=C2OC(C)C)c1C` [Example 49, 4-[(3,5-Dimethyl-4-ethoxycarbonylpyrrol-2-yl)methylene]-3-isopropoxy-2-pyrazolin-5-one], which melting point is on record?
**A.** Its melting point is 226 to 228 °C.

**Q.** For `CCOC(=O)c1c(C)[nH]c(C=C2C(=O)NN=C2CCc2ccc(N)cc2)c1C` [Example 50, 3-(4-Aminophenylethyl)-4-[(3,5-dimethyl-4-ethoxycarbonylpyrrol-2-yl)methylene]-2-pyrazolin-5-one], which melting point is on record?
**A.** Its melting point is 186 to 188 °C.

**Q.** For `CCc1ccc(C=C2C(=O)NN=C2OC(C)C)[nH]1` [Example 51, 4-[(5-Ethylpyrrol-2-yl)methylene]-3-isopropoxy-2-pyrazolin-5-one], which melting point is on record?
**A.** Its melting point is 119 to 121 °C.

**Q.** Which melting point does the source give for `CCc1c(C)[nH]c(C=C2C(=O)NN=C2CCc2ccc(O)cc2)c1C` [Example 52, 4-[(3,5-Dimethyl-4-ethylpyrrol-2-yl)methylene]-3-(4-hydroxyphenylethyl)-2-pyrazolin-5-one] here?
**A.** Its melting point is 260 to 262 °C.

**Q.** Which melting point does the source give for `CCOC(=O)CC1=NNC(=O)C1=Cc1ccc[nH]1` [Example 53, 3-(Ethoxycarbonylmethyl)-4-[(pyrrol-2-yl)methylene]-2-pyrazolin-5-one] here?
**A.** Its melting point is 124 to 126 °C.

**Q.** Which melting point does the source give for `COc1ccc(NC(=O)CC2=NNC(=O)C2=Cc2ccc[nH]2)cc1` [Example 54, 3-(4-Methoxyphenylaminocarbonylmethyl)-4-[(pyrrol-2-yl)methylene]-2-pyrazolin-5-one] here?
**A.** Its melting point is 240 to 242 °C.

**Q.** Which melting point does the source give for `Cc1c[nH]c(C=C2C(=O)NN=C2C(C)C)c1CCC(=O)O` [Example 55, 4-{(3-(2-Carboxyethyl)-4-methylpyrrol-2-yl]methylene}-3-isopropyl-2-pyrazolin-5-one] here?
**A.** The melting point was 229 to 231 °C.

**Q.** For `O=C1NN=C(C2CCC2)C1=Cc1ccc[nH]1` [Example 57, 3-Cyclobutyl-4-[(pyrrol-2-yl)methylene]-2-pyrazolin-5-one], which melting point is on record?
**A.** Its melting point is 150 to 152 °C.

**Q.** Which melting point does the source give for `O=C1NN=C(C2CC2)C1=Cc1cccn1-c1cc(Cl)cc(Cl)c1` [Example 59, 3-Cyclopropyl-4-[[1-(3,5-dichlorophenyl)pyrrol-2-yl)methylene]-2-pyrazolin-5-one] here?
**A.** The melting point was 188 to 190 °C.

**Q.** For `CC1(C)C(C2=NNC(=O)C2=Cc2ccc[nH]2)C1(C)C` [Example 60, 4-[(Pyrrol-2-yl)methylene]-3-(2,2,3,3-tetramethylcyclopropyl)-2-pyrazolin-5-one], which melting point is on record?
**A.** The melting point was 160 to 162 °C.

**Q.** Which melting point does the source give for `Cc1cc(C)c(C=C2C(=O)NN=C2C2CC2)[nH]1` [Example 61, 3-Cyclopropyl-4-[(3,5-dimethylpyrrol-2-yl)methylene]-2-pyrazolin-5-one] here?
**A.** Its melting point is 193 to 195 °C.

**Q.** With `O=C1NN=C(C2CCCC2)C1=Cc1ccc[nH]1` [Example 62, 3-Cyclopentyl-4-[(pyrrol-2-yl)methylene]-2-pyrazolin-5-one] as the molecule, how does the melting point read?
**A.** The melting point was 127 to 129 °C.

**Q.** With `CC1CC1C1=NNC(=O)C1=Cc1ccc[nH]1` (stereo not shown) [Example 63, 3-(2-Methylcyclopropyl)-4-[(pyrrol-2-yl)methylene]-2-pyrazolin-5-one] as the molecule, how does the melting point read?
**A.** The melting point was 132 to 133 °C.

**Q.** For `CCc1c(C)[nH]c(C=C2C(=O)NN=C2C2CC2)c1C` [Example 66, 3-Cyclopropyl-4[(3,5-dimethyl-4-ethylpyrrol-2-yl)methylene]-2-pyrazolin-5-one], which melting point is on record?
**A.** The melting point was 206 to 210 °C.

**Q.** With `O=C1NN=C(c2ccc[nH]2)C1=Cc1ccc[nH]1` [Example 67, 3-(Pyrrol-2-yl)-4-[(pyrrol-2-yl)methylene]-2-pyrazolin-5-one] as the molecule, how does the melting point read?
**A.** Its melting point is 245 to 247 °C.

**Q.** Which melting point does the source give for `Cc1c[nH]c(C=C2C(=O)NN=C2C2CC2)c1` [Example 68, 3-Cyclopropyl-4-[(4-methylpyrrol-2-yl)methylene]-2-pyrazolin-5-one] here?
**A.** Its melting point is 212 to 215 °C.

**Q.** Which melting point does the source give for `Cc1c[nH]c(C=C2C(=O)NN=C2c2nc3ccccc3s2)c1` [Example 69, 3-(Benzothiazol-2-yl)-4-[(4-methylpyrrol-2-yl)methylene]-2-pyrazolin-5-one] here?
**A.** The melting point was 327 to 329 °C.

**Q.** For `Cc1ccc(C=C2C(=O)NN=C2C2CC2)[nH]1` [Example 72, 3-Cyclopropyl-4-[(5-methylpyrrol-2-yl)methylene]-2-pyrazolin-5-one], which melting point is on record?
**A.** The melting point was 170 to 172 °C.

**Q.** Which melting point does the source give for `CCc1ccc(C=C2C(=O)NN=C2C2CC2)[nH]1` [Example 74, 3-Cyclopropyl-4-[(5-ethylpyrrol-2-yl)methylene]-2-pyrazolin-5-one] here?
**A.** Its melting point is 163 to 165 °C.

**Q.** With `CCOC(=O)c1c(C)[nH]c(C=C2C(=O)NN=C2C2CC2)c1C` [Example 75, 3-Cyclopropyl-4-[(3,5-dimethyl-4-ethoxycarbonylpyrrol-2-yl)methylene]-2-pyrazolin-5-one] as the molecule, how does the melting point read?
**A.** Its melting point is 240 to 242 °C.

**Q.** With `CC(C)OC1=NNC(=O)C1=Cc1ccc(-c2ccccc2)[nH]1` [Example 76, 3-Isopropoxy-4-[(5-phenylpyrrol-2-yl)methylene]-2-pyrazolin-5-one] as the molecule, how does the melting point read?
**A.** Its melting point is 212 to 214 °C.

**Q.** With `O=C1NN=C(C2CC2)C1=Cc1cccn1CCCCO` [Example 81, 3-Cyclopropyl-4-{[1-(4-hydroxybutyl)pyrrol-2-yl]methylene]-2-pyrazolin-5-one] as the molecule, how does the melting point read?
**A.** The melting point was 134 to 136 °C.

**Q.** With `Cc1c(CCC(=O)O)c[nH]c1C=C1C(=O)NN=C1OC(C)C` [Example 82, 4-{[4-(2-Carboxyethyl)-3-methylpyrrol-2-yl]methylene}-3-isopropoxy-2-pyrazolin-5-one] as the molecule, how does the melting point read?
**A.** Its melting point is 267 to 269 °C.

**Q.** For `Cc1[nH]c(C=C2C(=O)NN=C2OC(C)C)c(C)c1C(=O)O` [Example 83, 4-[(4-Carboxy-3,5-dimethylpyrrol-2-yl)methylene]-3-isopropoxy-2-pyrazolin-5-one], which melting point is on record?
**A.** The melting point was > 300 °C.

**Q.** With `Cc1[nH]c(C=C2C(=O)NN=C2OC(C)C)c(C)c1CN1CCOCC1` [Example 85, 4-[(3,5-Dimethyl-4-morpholinomethylpyrrol-2-yl)methylene]-3-isopropoxy-2-pyrazolin-5-one] as the molecule, how does the melting point read?
**A.** The melting point was 162 to 164 °C.

**Q.** For `Cc1[nH]c(C=C2C(=O)NN=C2OC(C)C)c(C)c1CN(C)C` [Example 86, 4-[(3,5-Dimethyl-4-dimethylaminomethylpyrrol-2-yl)methylene]-3-isopropoxy-2-pyrazolin-5-one], which melting point is on record?
**A.** Its melting point is 173 to 175 °C.

**Q.** With `CC(=O)c1c(C)[nH]c(C=C2C(=O)NN=C2OC(C)C)c1C` [Example 87, 4-[(4-Acetyl-3,5-dimethylpyrrol-2-yl)methylene]-3-isopropoxy-2-pyrazolin-5-one] as the molecule, how does the melting point read?
**A.** The melting point was 209 to 210 °C.

**Q.** With `Cc1[nH]c(C=C2C(=O)NN=C2OC(C)C)c(C)c1C(=O)OCCN(C)C` [Example 88, 4-{[4-(2-Dimethylaminoethoxycarbonyl)-3,5-dimethylpyrrol-2-yl]methylene}-3-isopropoxy-2-pyrazolin-5-one] as the molecule, how does the melting point read?
**A.** Its melting point is 165 to 167 °C.

**Q.** For `CCOC(=O)c1ccc(C=C2C(=O)NN=C2OC(C)C)[nH]1` [Example 90, 4-[(5-Ethoxycarbonylpyrrol-2-yl)methylene]-3-isopropoxy-2-pyrazolin-5-one], which melting point is on record?
**A.** Its melting point is 205 to 207 °C.

**Q.** For `CC(C)OC1=NNC(=O)C1=Cc1ccc(C(=O)O)[nH]1` [Example 91, 4-[(5-Carboxypyrrol-2-yl)methylene]-3-isopropoxy-2-pyrazolin-5-one], which melting point is on record?
**A.** The melting point was 235 to 237 °C.

**Q.** For `O=C(CC1=NNC(=O)C1=Cc1ccc[nH]1)Nc1ccc(Cl)cc1` [Example 92, 3-(4-Chlorophenylaminocarbonylmethyl)-4-[(pyrrol-2-yl)methylene]-2-pyrazolin-5-one], which melting point is on record?
**A.** Its melting point is 240 to 242 °C.

**Q.** Which melting point does the source give for `O=C1NN=C(C2CC2)C1=Cc1ccc(-c2ccccc2)[nH]1` [Example 93, 3-Cyclopropyl-4-[(5-phenylpyrrol-2-yl)methylene]-2-pyrazolin-5-one] here?
**A.** The melting point was 208 to 210 °C.

**Q.** With `CCc1c(C)[nH]c(C=C2C(=O)NN=C2C2CCOC2)c1C` (stereo not shown) [Example 94, 4-[(3,5-Dimethyl-4-ethylpyrrol-2-yl)methylene]-3-(tetrahydrofuran-3-yl)-2-pyrazolin-5-one] as the molecule, how does the melting point read?
**A.** The melting point was 163 to 165 °C.

**Q.** Which melting point does the source give for `Cc1[nH]c(C=C2C(=O)NN=C2C2CC2)c(C)c1C(=O)O` [Example 95, 4-[(4-Carboxy-3,5-dimethylpyrrol-2-yl)methylene]-3-cyclopropyl-2-pyrazolin-5-one] here?
**A.** The melting point was 312 °C (dec.).

**Q.** With `CCOC(=O)c1c(C)[nH]c(C=C2C(=O)NN=C2c2cccnc2)c1C` [Example 96, 4-[(3,5-dimethyl-4-ethoxycarbonylpyrrol-2-yl)methylene]-3-(3-pyridyl)-2-pyrazolin-5-one] as the molecule, how does the melting point read?
**A.** The melting point was 247 to 249 °C.

**Q.** Which melting point does the source give for `Cc1[nH]c(C=C2C(=O)NN=C2C2CC2)c(C)c1CN1CCOCC1` [Example 97, 3-Cyclopropyl-4-[(3,5-dimethyl-4-morpholinomethylpyrrol-2-yl)methylene]-2-pyrazolin-5-one] here?
**A.** Its melting point is 175 to 177 °C.

**Q.** Which melting point does the source give for `Cc1c[nH]c(C=C2C(=O)NN=C2c2cnccn2)c1C` [Example 98, 4-[(3,4-dimethylpyrrol-2-yl)methylene]-3-pyrazinyl-2-pyrazolin-5-one] here?
**A.** The melting point was 245 to 250 °C.

**Q.** With `Cc1c(CCC(=O)O)c[nH]c1C=C1C(=O)NN=C1C1CC1` [Example 99, 4-{[4-(2-Carboxyethyl)-3-methylpyrrol-2-yl]methylene}-3-cyclopropyl-2-pyrazolin-5-one] as the molecule, how does the melting point read?
**A.** Its melting point is 290 °C (dec.).

**Q.** For `Cc1[nH]c(C=C2C(=O)NN=C2C2CC2)c(C)c1CN(C)C` [Example 100, 3-Cyclopropyl-4-[(3,5-dimethyl-4-dimethylaminomethylpyrrol-2-yl)methylene]-2-pyrazolin-5-one], which melting point is on record?
**A.** Its melting point is 176 to 178 °C.

**Q.** With `COC(=O)CCC1=NNC(=O)C1=Cc1ccc[nH]1` [Example 103, 3-(2-Methoxycarbonylethyl)-4-[(pyrrol-2-yl)methylene]-2-pyrazolin-5-one] as the molecule, how does the melting point read?
**A.** The melting point was 134 to 136 °C.
